Test results from patent publication US8592405B2, “Synergistic antimicrobial composition” (Dow Global Technologies LLC, priority 2009, dated 2013).

Key:
Assay type in all cases: cell-based
Trichoderma viride (Tv) = assay: Fungal efficacy testing, modified ASTM 5590 (12-well, dry paint film); conditions: three weeks; for % inhibition: at the Total conc; for Total conc, ppm: total biocide in paint taken as minimum inhibitory concentration, 30 C
Gleocapsa sp. (Gs) = assay: Algal efficacy testing, modified ASTM 5589 (12-well, dry paint film); conditions: three weeks; for % inhibition: at the Total conc; for Total conc, ppm: total biocide in paint taken as minimum inhibitory concentration
Method: Samples of white acrylic latex paint free of biocides were prepared in 50 ml aliquots. Each biocide was post added to give the necessary active ingredient concentration in the paint. The total biocides concentrations tested were 750, 1500, 2500 and 5000 ppm. After biocides addition, each sample was hand mixed for a minimum of 30 sec, followed by a 3 min run on the paint shaker (RED DEVIL). Each of the paint samples as well as a control sample (containing no biocide) were used to prepare films on black plastic-vinyl chloride/acetate copolymer panels (LENETA, Mahwah, N.J.) using a 3 mil bird bar applicator. The panels were thoroughly dried for 5 days avoiding direct exposure to sunlight. Square discs (15 mm^2) were cut out from each panel and were used as the substrate for fungal and algal efficacy tests. This sample size allowed for an agar border when the sample disc was placed into the well of the test plate.
(§1) The appropriate media (BOLD'S 3N for Chlorophytes, BG-11 for Cyanobacteria, and PDA for fungi) were used to support microbial growth. The test plates were maintained at room temp (25° C.-26° C.), in a cycled light-dark environment, for 3 weeks for algae. Plates for fungal challenge tests were maintained at 30C for three weeks. At the end of incubation period the samples were scored for percent area covered by visible microbial growth.
ASTM 5589 is a standard accelerated test method for determining resistance of various coatings (including paints) to algal defacement. To accommodate for high-throughput screening, this method was scaled down from petri plates to 12-well plates. A single coupon was placed with a pair of sterile forceps at the center of the agar plug (on top) with the painted surface facing upwards. Each well was inoculated with 150 μl of organism (1×10^8 cfu/ml) making sure that the whole surface (paint film as well as the agar surrounding it) was evenly covered. The plates were incubated at room temp (25° C.-26° C.) with cyclic exposure to light (OTT-Lite model #OTL4012P, 40 Watt, 26 KLumen) and dark phases, for a period of three weeks. The total area covered was evaluated at the end of each week according to percent area covered in 5% increments. While rating the plates, notations were made for zones of inhibition.
(§2) The SI is calculated based on F. C. Kull et.

[1] = tested on: An + Pf (Aspergillus niger + Penicillium funiculosum); assay: Fungal efficacy testing, modified ASTM 5590 (6-well, mixed inoculum, Example 4); conditions: four weeks; for Total conc, ppm: An + Pf mixed inoculum, NE = no end point at the concentration tested; for % inhibition: An + Pf, at the Total conc
Method: as §2
(§3) A single or blend of biocides was post added into white acrylic latex paint free of biocides to give a maximum total active ingredient/s concentration tested. This paint was then diluted with a biocide free acrylic latex paint at concentrations range of 75 to 12.5% w/w to give desired concentrations for the testing. Depending on the type of biocide blends tested, the total biocides concentrations varies from 200 to 5000 ppm. After biocides addition or dilution each sample was hand mixed for at least a minute until uniformity is achieved. Each of the paint samples as well as a control sample (containing no biocide) were used to prepare films on black plastic-vinyl chloride/acetate copolymer panels (LENETA, Mahwah, N.J.) using a 3 mil bird bar applicator. The panels were thoroughly dried for at least 2 days avoiding direct exposure to sunlight. Square discs (0.5 inch^2, 13 mm^2) were cut out from each panel and were used as the substrate for fungal and algal efficacy tests. This sample size allowed for an agar border when the sample disc was placed into the well of the test plate. Each sample was tested in duplicate
as §1, with “for four” for “for 3”, “at 30 C” for “at 30C”, “for four” for “for three”, “of the” for “of”
(§4) ASTM 5590 is a standard accelerated test method for determining resistance of various coatings (including paints) to fungal defacement. To accommodate for high-throughput screening, this method was scaled down from petri plates to 6-well plates. To set up the test, an agar plug was placed at the bottom of each well of the sterile 6-well plate. A single coupon was placed with a pair of sterile forceps at the center of the agar plug (on top) with the painted surface facing upwards. Fungal inoculums were prepared by mixing equal concentrations (1×10^6 cfu/ml) and equal volumes (depending on number of samples to be tested) of like growing organisms. Cladosporium herbarum was mixed with Aureobasidium pullulans. Aspergillus niger was mixed with Penicillium funiculosum. Alternaria alternata was mixed with Trichoderma viride. Each well was inoculated with 400 μl of organism mixture (1×10^6 cfu/ml) making sure that the whole surface (paint film as well as the agar surrounding it) was evenly covered. The plates were incubated at 30° C. in presence of moisture, for a period of four weeks. The total percent area covered was evaluated and recorded at the end of each week after the 2nd week and recorded in increments of 5%.

[2] = tested on: Ch + Tv (Cladosporium herbarum + Trichoderma viride); assay: as above; conditions: four weeks
Method: [The source words this procedure for another target and reports this target under the same test.] as §2, §3
as §1, with “for four” for “for 3”, “at 30 C” for “at 30C”, “for four” for “for three”, “of the” for “of”
as §4

| Structure (SMILES) | % inhibition (Trichoderma viride (Tv)) [%] | Total conc, ppm (Trichoderma viride (Tv)) [ppm] | % inhibition (Gleocapsa sp. (Gs)) [%] | Total conc, ppm (Gleocapsa sp. (Gs)) [ppm] | Total conc, ppm [1] [ppm] | % inhibition [1] [%] | Total conc, ppm ([2]; Ch + Tv mixed inoculum, NE = no end point at the concentration tested) [ppm] | % inhibition ([2]; Ch + Tv, at the Total conc) [%] |
| --- | --- | --- | --- | --- | --- | --- | --- | --- |
| CCCCCCCCn1sc(Cl)c(Cl)c1=O [DCOIT, 4,5-dichloro-2-n-octyl-4-isothiazolin-3-one] | 60 | 2500 | 77.5 | 2500 | – | – | – | – |
| Cc1ccc(S(=O)(=O)C(I)I)cc1 [DIMTS, diiodomethyl-p-tolylsulfone] | 90 | 750 | 80 | 2500 | 1250 | 100 | – | – |
| CN(C)C(=O)Nc1cccc(C(F)(F)F)c1 [Fluometuron, 1,1-dimethyl-3-(α,α,α-trifluoro-m-tolyl)urea] | – | – | – | – | 5000 | 0 | 5000 | 0 |
